Laboratory results from ChEMBL document CHEMBL3091428, “Synthesis and initial biological evaluation of substituted 1-phenylamino-2-thio-4,5-dimethyl-1H-imidazole derivatives” (Bioorg Med Chem Lett, 2013).
≈ marks a conversion by molar mass, not a printed value.

Experiments:
[1] = system: SN12C; experiment: Cytotoxicity against human SN12C cells assessed as cell growth after 48 hrs by SRB assay relative to control; assay type: functional
[2] = system: ACHN; experiment: Cytotoxicity against human ACHN cells assessed as cell growth after 48 hrs by SRB assay relative to control; assay type: functional
[3] = system: A498; experiment: Cytotoxicity against human A498 cells assessed as cell growth after 48 hrs by SRB assay relative to control; assay type: functional
[4] = system: SK-OV-3; experiment: Cytotoxicity against human SKOV3 cells assessed as cell growth after 48 hrs by SRB assay relative to control; assay type: functional
[5] = Cytotoxicity against human NCI-ADR-RES cells assessed as cell growth after 48 hrs by SRB assay relative to control; assay type: functional
[6] = Cytotoxicity against human OVCAR5 cells assessed as cell growth after 48 hrs by SRB assay relative to control; assay type: functional, OVCAR-5
[7] = Cytotoxicity against human OVCAR4 cells assessed as cell growth after 48 hrs by SRB assay relative to control; assay type: functional, OVCAR-4
[8] = system: OVCAR-3; experiment: Cytotoxicity against human OVCAR3 cells assessed as cell growth after 48 hrs by SRB assay relative to control; assay type: functional
[9] = system: UACC-62; experiment: Cytotoxicity against human UACC62 cells assessed as cell growth after 48 hrs by SRB assay relative to control; assay type: functional
[10] = system: SK-MEL-5; experiment: Cytotoxicity against human SK-MEL-5 cells assessed as cell growth after 48 hrs by SRB assay relative to control; assay type: functional
[11] = Cytotoxicity against human UACC257 cells assessed as cell growth after 48 hrs by SRB assay relative to control; assay type: functional, UACC-257
[12] = system: SK-MEL-28; experiment: Cytotoxicity against human SK-MEL-28 cells assessed as cell growth after 48 hrs by SRB assay relative to control; assay type: functional
[13] = system: M14; experiment: Cytotoxicity against human M14 cells assessed as cell growth after 48 hrs by SRB assay relative to control; assay type: functional
[14] = system: MDA-MB-435; experiment: Cytotoxicity against human MDA-MB-435 cells assessed as cell growth after 48 hrs by SRB assay relative to control; assay type: functional
[15] = system: SNB-75; experiment: Cytotoxicity against human SNB75 cells assessed as cell growth after 48 hrs by SRB assay relative to control; assay type: functional
[16] = system: U-251; experiment: Cytotoxicity against human U251 cells assessed as cell growth after 48 hrs by SRB assay relative to control; assay type: functional
[17] = system: SF-539; experiment: Cytotoxicity against human SF539 cells assessed as cell growth after 48 hrs by SRB assay relative to control; assay type: functional
[18] = system: SF-295; experiment: Cytotoxicity against human SF295 cells assessed as cell growth after 48 hrs by SRB assay relative to control; assay type: functional
[19] = system: KM12; experiment: Cytotoxicity against human KM12 cells assessed as cell growth after 48 hrs by SRB assay relative to control; assay type: functional
[20] = system: HCT-116; experiment: Cytotoxicity against human HCT116 cells assessed as cell growth after 48 hrs by SRB assay relative to control; assay type: functional
[21] = system: HCT-15; experiment: Cytotoxicity against human HCT15 cells assessed as cell growth after 48 hrs by SRB assay relative to control; assay type: functional
[22] = system: HCC 2998; experiment: Cytotoxicity against human HCC2998 cells assessed as cell growth after 48 hrs by SRB assay relative to control; assay type: functional
[23] = system: COLO 205; experiment: Cytotoxicity against human COLO205 cells assessed as cell growth after 48 hrs by SRB assay relative to control; assay type: functional
[24] = system: NCI-H522; experiment: Cytotoxicity against human NCI-H522 cells assessed as cell growth after 48 hrs by SRB assay relative to control; assay type: functional
[25] = system: NCI-H460; experiment: Cytotoxicity against human NCI-H460 cells assessed as cell growth after 48 hrs by SRB assay relative to control; assay type: functional
[26] = system: NCI-H322M; experiment: Cytotoxicity against human NCI-H322M cells assessed as cell growth after 48 hrs by SRB assay relative to control; assay type: functional
[27] = system: NCI-H23; experiment: Cytotoxicity against human NCI-H23 cells assessed as cell growth after 48 hrs by SRB assay relative to control; assay type: functional
[28] = system: NCI-H226; experiment: Cytotoxicity against human NCI-H226 cells assessed as cell growth after 48 hrs by SRB assay relative to control; assay type: functional
[29] = system: HOP-62; experiment: Cytotoxicity against human HOP62 cells assessed as cell growth after 48 hrs by SRB assay relative to control; assay type: functional
[30] = system: SR; experiment: Cytotoxicity against human SR cells assessed as cell growth after 48 hrs by SRB assay relative to control; assay type: functional
[31] = system: RPMI-8226; experiment: Cytotoxicity against human RPMI8226 cells assessed as cell growth after 48 hrs by SRB assay relative to control; assay type: functional
[32] = system: MOLT-4; experiment: Cytotoxicity against human MOLT4 cells assessed as cell growth after 48 hrs by SRB assay relative to control; assay type: functional
[33] = system: K562; experiment: Cytotoxicity against human K562 cells assessed as cell growth after 48 hrs by SRB assay relative to control; assay type: functional
[34] = system: CCRF-CEM; experiment: Cytotoxicity against human CCRF-CEM cells assessed as cell growth after 48 hrs by SRB assay relative to control; assay type: functional
[35] = system: Pichia kudriavzevii; experiment: Antimicrobial activity against Candida krusei ATCC 6258 after 24 hrs by broth microdilution method; assay type: functional; details: ATCC 6258, 24 h
[36] = system: Nakaseomyces glabratus; experiment: Antimicrobial activity against Candida glabrata ATCC 90030 after 24 hrs by broth microdilution method; assay type: functional; details: ATCC 90030, 24 h
[37] = system: Listeria monocytogenes; experiment: Antimicrobial activity against Listeria monocytogenes ATCC 19115 after 24 hrs by broth microdilution method; assay type: functional; details: ATCC 19115, 24 h
[38] = system: Candida albicans; experiment: Antimicrobial activity against Candida albicans ATCC 90028 after 24 hrs by broth microdilution method; assay type: functional; details: ATCC 90028, 24 h
[39] = system: Enterococcus faecalis; experiment: Antimicrobial activity against Enterococcus faecalis ATCC 51299 after 24 hrs by broth microdilution method; assay type: functional; details: ATCC 51299, 24 h
[40] = system: Enterococcus faecalis; experiment: Antimicrobial activity against Enterococcus faecalis ATCC 29212 after 24 hrs by broth microdilution method; assay type: functional; details: ATCC 29212, 24 h
[41] = system: Pseudomonas aeruginosa; experiment: Antimicrobial activity against Pseudomonas aeruginosa ATCC 27853 after 24 hrs by broth microdilution method; assay type: functional; details: ATCC 27853, 24 h
[42] = system: Klebsiella pneumoniae; experiment: Antimicrobial activity against Klebsiella pneumoniae ATCC 13883 after 24 hrs by broth microdilution method; assay type: functional; details: ATCC 13883, 24 h
[43] = system: Escherichia coli; experiment: Antimicrobial activity against Escherichia coli ATCC 25922 after 24 hrs by broth microdilution method; assay type: functional; details: ATCC 25922, 24 h
[44] = system: Escherichia coli; experiment: Antimicrobial activity against Escherichia coli ATCC 35218 after 24 hrs by broth microdilution method; assay type: functional; details: ATCC 35218, 24 h
[45] = system: T47D; experiment: Cytotoxicity against human T47D cells assessed as cell growth after 48 hrs by SRB assay relative to control; assay type: functional
[46] = system: MDA-MB-231; experiment: Cytotoxicity against human MDA-MB-231 cells assessed as cell growth after 48 hrs by SRB assay relative to control; assay type: functional
[47] = Cytotoxicity against human Hs578T cells assessed as cell growth after 48 hrs by SRB assay relative to control; assay type: functional, Hs-578T
[48] = system: MCF7; experiment: Cytotoxicity against human MCF7 cells assessed as cell growth after 48 hrs by SRB assay relative to control; assay type: functional

For `COc1ccc(C(=O)CSc2nc(C)c(C)n2Nc2ccccc2)cc1`, the Activity [1] was 98.88%, the Activity [2] was 99.05% and the Activity [3] was 90.87%. It also gave an Activity [4] of 93.26%, an Activity [5] of 83.61% and an Activity [6] of 99.29%. For the same compound, the Activity [7] was 92.83%, the Activity [8] was 101.3% and the Activity [9] was 90.38%. It also gave an Activity [10] of 100.7%, an Activity [11] of 99.75% and an Activity [12] of 113.1%. It also gave an Activity [13] of 91.19%, an Activity [14] of 95.25% and an Activity [15] of 93.05%. It also gave an Activity [16] of 93.77%, an Activity [17] of 100.8% and an Activity [18] of 90.39%. It also gave an Activity [19] of 97.97%, an Activity [20] of 96.71% and an Activity [21] of 88.63%. The Activity [22] was 93.49%, the Activity [23] was 100.5% and the Activity [24] was 77.18%. It also gave an Activity [25] of 96.54%, an Activity [26] of 82.37% and an Activity [27] of 88.38%. The Activity [28] was 92.08%, the Activity [29] was 100.7% and the Activity [30] was 83.4%. It also gave an Activity [31] of 94.68%, an Activity [32] of 89.96% and an Activity [33] of 87.79%. The Activity [34] was 89.68%, the MIC [35] was 800 µg/mL (≈ 2180 µM) and the MIC [36] was 800 µg/mL (≈ 2180 µM). It also gave an MIC [37] of 800 µg/mL (≈ 2180 µM), an MIC [38] of 400 µg/mL (≈ 1090 µM) and an MIC [39] of 800 µg/mL (≈ 2180 µM). The MIC [40] was 400 µg/mL (≈ 1090 µM), the MIC [41] was 200 µg/mL (≈ 544 µM) and the MIC [42] was 800 µg/mL (≈ 2180 µM). The MIC [43] was 400 µg/mL (≈ 1090 µM), the MIC [44] was 800 µg/mL (≈ 2180 µM) and the Activity [45] was 71.62%. It also gave an Activity [46] of 89.05%, an Activity [47] of 107.2% and an Activity [48] of 105.7%.

Compound `Cc1nc(SCC(=O)c2ccc(Cl)cc2)n(Nc2ccccc2)c1C` has an Activity [1] of 93.18%, an Activity [2] of 102.7% and an Activity [3] of 82.14%. The Activity [4] was 102.4%, the Activity [5] was 93.39% and the Activity [6] was 103.9%. It also gave an Activity [7] of 93.89%, an Activity [8] of 108.6% and an Activity [9] of 90.32%. For the same compound, the Activity [10] was 96.98%, the Activity [11] was 97.88% and the Activity [12] was 108.7%. It also gave an Activity [13] of 107.4%, an Activity [14] of 99.36% and an Activity [15] of 94.11%. For the same compound, the Activity [16] was 90.68%, the Activity [17] was 103.9% and the Activity [18] was 89.88%. It also gave an Activity [19] of 105%, an Activity [20] of 90.7% and an Activity [21] of 92.65%. It also gave an Activity [22] of 106.9%, an Activity [23] of 96.15% and an Activity [24] of 79.92%. It also gave an Activity [25] of 98.85%, an Activity [26] of 88.63% and an Activity [27] of 89.25%. It also gave an Activity [28] of 95.15%, an Activity [29] of 101.2% and an Activity [30] of 86.04%. The Activity [31] was 92.33%, the Activity [32] was 87.31% and the Activity [33] was 88.1%. For the same compound, the Activity [34] was 81.64%, the MIC [35] was 200 µg/mL (≈ 538 µM) and the MIC [36] was 400 µg/mL (≈ 1080 µM). The MIC [37] was 400 µg/mL (≈ 1080 µM), the MIC [38] was 200 µg/mL (≈ 538 µM) and the MIC [39] was 400 µg/mL (≈ 1080 µM). It also gave an MIC [40] of 200 µg/mL (≈ 538 µM), an MIC [41] of 400 µg/mL (≈ 1080 µM) and an MIC [42] of 800 µg/mL (≈ 2150 µM). The MIC [43] was 800 µg/mL (≈ 2150 µM), the MIC [44] was 400 µg/mL (≈ 1080 µM) and the Activity [45] was 79.51%. The Activity [46] was 95.48%, the Activity [47] was 96.61% and the Activity [48] was 88.08%.
